Experimental data from patent publication US20220281848A1, “PYRAZOLE-SUBSTITUTED PYRROLIDINONES AS HERBICIDES” (FMC Corporation, priority 2019, published 2022).

Legend:
Type in all cases: in vivo
Settings in all cases: 19 to 21 days
[1] = tested on: ragweed (common ragweed, Ambrosia elatior); test: Test C preemergence, ragweed
Description: (§1) Seeds of plant species selected from corn (Zea mays), soybean (Glycine max), velvetleaf (Abutilon theophrasti), palmer pigweed (Amaranthus palmeri), waterhemp (common waterhemp, Amaranthus rudis), surinam grass (Brachiaria decumbens), large (Lg) crabgrass (Digitaria sanguinalis), fall panicum (Panicum dichotomiflorum), giant foxtail (Setaria faberi), ragweed (common ragweed, Ambrosia elatior), barnyardgrass (Echinochloa crus-galli), E. Black Nightshade (Solanum ptycanthum), and horseweed (Conyza canadensis), were planted into a silt loam soil and treated preemergence with test chemicals formulated in a non-phytotoxic solvent mixture which included a surfactant.
(§2) Treated plants and controls were maintained in a greenhouse for 19 to 21 days, after which time all species were compared to controls and visually evaluated. Plant response ratings, summarized in Table C, are based on a scale of 0 to 100 where 0 is no effect and 100 is complete control.

corn (Zea mays) = test: Test C preemergence, corn
Description: as §1, §2

soybean (Glycine max) [2] = test: Test C preemergence, soybean
Description: as §1, §2

[3] = tested on: fall panicum (Panicum dichotomiflorum); test: Test C preemergence, fall panicum
Description: as §1, §2

[4] = tested on: ragweed (common ragweed, Ambrosia elatior); test: Test B preemergence, ragweed
Description: (§3) Seeds of plant species selected from blackgrass (Alopecurus myosuroides), Italian ryegrass (Lolium multiflorum), wheat, winter (winter wheat, Triticum aestivum), corn (Zea mays), large (Lg) crabgrass (Digitaria sanguinalis), giant foxtail (Setaria faberi), johnsongrass (Sorghum halepense), ragweed (common ragweed, Ambrosia elatior), soybean (Glycine max), barnyardgrass (Echinochloa crus-galli), waterhemp (common waterhemp, Amaranthus rudis), palmer pigweed (Amaranthus palmeri), and surinam grass (Brachiaria decumbens), were planted into a silt loam soil and treated preemergence with test chemicals formulated in a non-phytotoxic solvent mixture which included a surfactant.
(§4) Treated plants and controls were maintained in a greenhouse for 19 to 21 days, after which time all species were compared to controls and visually evaluated. Plant response ratings, summarized in Table B, are based on a scale of 0 to 100 where 0 is no effect and 100 is complete control.

[5] = tested on: surinam grass (Brachiaria decumbens); test: Test B preemergence, surinam grass
Description: as §3, §4

[6] = tested on: waterhemp (common waterhemp, Amaranthus rudis); test: Test C preemergence, waterhemp
Description: as §1, §2

[7] = tested on: Italian ryegrass (Lolium multiflorum); test: Test B preemergence, Italian ryegrass
Description: as §3, §4

[8] = tested on: horseweed (Conyza canadensis); test: Test C preemergence, horseweed
Description: as §1, §2

[9] = tested on: giant foxtail (Setaria faberi); test: Test B preemergence, giant foxtail
Description: as §3, §4

soybean (Glycine max) [10] = test: Test B preemergence, soybean
Description: as §3, §4

[11] = tested on: johnsongrass (Sorghum halepense); test: Test B preemergence, johnsongrass
Description: as §3, §4

[12] = tested on: giant foxtail (Setaria faberi); test: Test C preemergence, giant foxtail
Description: as §1, §2

[13] = tested on: velvetleaf (Abutilon theophrasti); test: Test C preemergence, velvetleaf
Description: as §1, §2

[14] = tested on: barnyardgrass (Echinochloa crus-galli); test: Test B preemergence, barnyardgrass
Description: as §3, §4

[15] = tested on: barnyardgrass (Echinochloa crus-galli); test: Test C preemergence, barnyardgrass
Description: as §1, §2

CN1C[C@H](c2cc(C(F)(F)F)n(C)n2)[C@@H](C(=O)Nc2cccc(F)c2F)C1=O [Compound 13, (3S,4R)—N-(2,3-difluorophenyl)-1-methyl-4-[1-methyl-5-(trifluoromethyl)-1H-pyrazol-3-yl]-2-oxo-3-pyrrolidinecarboxamide]
Plant response rating (0 no effect, 100 complete control) Ragweed ([1]; 4 g ai/ha Preemergence): 0
Plant response rating (0 no effect, 100 complete control) Ragweed ([1]; 8 g ai/ha Preemergence): 0
Plant response rating (0 no effect, 100 complete control) Ragweed ([1]; 16 g ai/ha Preemergence): 0
Plant response rating (0 no effect, 100 complete control) Ragweed ([1]; 31 g ai/ha Preemergence): 0
Plant response rating (0 no effect, 100 complete control) Ragweed ([1]; 62 g ai/ha Preemergence): 0
Plant response rating (0 no effect, 100 complete control) Ragweed ([1]; 125 g ai/ha Preemergence): 0
Plant response rating (0 no effect, 100 complete control) Corn (corn (Zea mays); 4 g ai/ha Preemergence): 0
Plant response rating (0 no effect, 100 complete control) Corn (corn (Zea mays); 8 g ai/ha Preemergence): 0
Plant response rating (0 no effect, 100 complete control) Corn (corn (Zea mays); 16 g ai/ha Preemergence): 0
Plant response rating (0 no effect, 100 complete control) Corn (corn (Zea mays); 31 g ai/ha Preemergence): 0
Plant response rating (0 no effect, 100 complete control) Corn (corn (Zea mays); 62 g ai/ha Preemergence): 0
Plant response rating (0 no effect, 100 complete control) Corn (corn (Zea mays); 125 g ai/ha Preemergence): 15
Plant response rating (0 no effect, 100 complete control) Soybean (soybean (Glycine max) [2]; 4 g ai/ha Preemergence): 0
Plant response rating (0 no effect, 100 complete control) Soybean (soybean (Glycine max) [2]; 8 g ai/ha Preemergence): 0
Plant response rating (0 no effect, 100 complete control) Soybean (soybean (Glycine max) [2]; 16 g ai/ha Preemergence): 0
Plant response rating (0 no effect, 100 complete control) Soybean (soybean (Glycine max) [2]; 31 g ai/ha Preemergence): 0
Plant response rating (0 no effect, 100 complete control) Soybean (soybean (Glycine max) [2]; 62 g ai/ha Preemergence): 0
Plant response rating (0 no effect, 100 complete control) Soybean (soybean (Glycine max) [2]; 125 g ai/ha Preemergence): 0
Plant response rating (0 no effect, 100 complete control) Panicum ([3]; 4 g ai/ha Preemergence): 0
Plant response rating (0 no effect, 100 complete control) Panicum ([3]; 8 g ai/ha Preemergence): 0
Plant response rating (0 no effect, 100 complete control) Panicum ([3]; 16 g ai/ha Preemergence): 0
Plant response rating (0 no effect, 100 complete control) Panicum ([3]; 31 g ai/ha Preemergence): 0
Plant response rating (0 no effect, 100 complete control) Panicum ([3]; 62 g ai/ha Preemergence): 53
Plant response rating (0 no effect, 100 complete control) Panicum ([3]; 125 g ai/ha Preemergence): 48
Plant response rating (0 no effect, 100 complete control) Ragweed ([4]; 16 g ai/ha Preemergence): 0
Plant response rating (0 no effect, 100 complete control) Ragweed ([4]; 31 g ai/ha Preemergence): 0
Plant response rating (0 no effect, 100 complete control) Ragweed ([4]; 62 g ai/ha Preemergence): 0
Plant response rating (0 no effect, 100 complete control) Ragweed ([4]; 125 g ai/ha Preemergence): 0
Plant response rating (0 no effect, 100 complete control) Surinam Grass ([5]; 16 g ai/ha Preemergence): 65
Plant response rating (0 no effect, 100 complete control) Surinam Grass ([5]; 31 g ai/ha Preemergence): 78
Plant response rating (0 no effect, 100 complete control) Surinam Grass ([5]; 62 g ai/ha Preemergence): 95
Plant response rating (0 no effect, 100 complete control) Surinam Grass ([5]; 125 g ai/ha Preemergence): 93
Plant response rating (0 no effect, 100 complete control) Waterhemp ([6]; 4 g ai/ha Preemergence): 0
Plant response rating (0 no effect, 100 complete control) Waterhemp ([6]; 8 g ai/ha Preemergence): 0
Plant response rating (0 no effect, 100 complete control) Waterhemp ([6]; 16 g ai/ha Preemergence): 0
Plant response rating (0 no effect, 100 complete control) Waterhemp ([6]; 31 g ai/ha Preemergence): 0
Plant response rating (0 no effect, 100 complete control) Waterhemp ([6]; 62 g ai/ha Preemergence): 20
Plant response rating (0 no effect, 100 complete control) Waterhemp ([6]; 125 g ai/ha Preemergence): 20
Plant response rating (0 no effect, 100 complete control) Ryegrass, Italian ([7]; 16 g ai/ha Preemergence): 0
Plant response rating (0 no effect, 100 complete control) Ryegrass, Italian ([7]; 31 g ai/ha Preemergence): 25
Plant response rating (0 no effect, 100 complete control) Ryegrass, Italian ([7]; 62 g ai/ha Preemergence): 65
Plant response rating (0 no effect, 100 complete control) Ryegrass, Italian ([7]; 125 g ai/ha Preemergence): 92
Plant response rating (0 no effect, 100 complete control) Horseweed ([8]; 4 g ai/ha Preemergence): 0
Plant response rating (0 no effect, 100 complete control) Horseweed ([8]; 8 g ai/ha Preemergence): 0
Plant response rating (0 no effect, 100 complete control) Horseweed ([8]; 16 g ai/ha Preemergence): 0
Plant response rating (0 no effect, 100 complete control) Horseweed ([8]; 31 g ai/ha Preemergence): 30
Plant response rating (0 no effect, 100 complete control) Horseweed ([8]; 62 g ai/ha Preemergence): 45
Plant response rating (0 no effect, 100 complete control) Horseweed ([8]; 125 g ai/ha Preemergence): 65
Plant response rating (0 no effect, 100 complete control) Foxtail, Giant ([9]; 16 g ai/ha Preemergence): 90
Plant response rating (0 no effect, 100 complete control) Foxtail, Giant ([9]; 31 g ai/ha Preemergence): 95
Plant response rating (0 no effect, 100 complete control) Foxtail, Giant ([9]; 62 g ai/ha Preemergence): 98
Plant response rating (0 no effect, 100 complete control) Foxtail, Giant ([9]; 125 g ai/ha Preemergence): 98
Plant response rating (0 no effect, 100 complete control) Soybean (soybean (Glycine max) [10]; 16 g ai/ha Preemergence): 0
Plant response rating (0 no effect, 100 complete control) Soybean (soybean (Glycine max) [10]; 31 g ai/ha Preemergence): 0
Plant response rating (0 no effect, 100 complete control) Soybean (soybean (Glycine max) [10]; 62 g ai/ha Preemergence): 0
Plant response rating (0 no effect, 100 complete control) Soybean (soybean (Glycine max) [10]; 125 g ai/ha Preemergence): 8
Plant response rating (0 no effect, 100 complete control) Johnsongrass ([11]; 16 g ai/ha Preemergence): 0
Plant response rating (0 no effect, 100 complete control) Johnsongrass ([11]; 31 g ai/ha Preemergence): 8
Plant response rating (0 no effect, 100 complete control) Johnsongrass ([11]; 62 g ai/ha Preemergence): 15
Plant response rating (0 no effect, 100 complete control) Johnsongrass ([11]; 125 g ai/ha Preemergence): 55
Plant response rating (0 no effect, 100 complete control) Foxtail, Giant ([12]; 4 g ai/ha Preemergence): 0
Plant response rating (0 no effect, 100 complete control) Foxtail, Giant ([12]; 8 g ai/ha Preemergence): 55
Plant response rating (0 no effect, 100 complete control) Foxtail, Giant ([12]; 16 g ai/ha Preemergence): 73
Plant response rating (0 no effect, 100 complete control) Foxtail, Giant ([12]; 31 g ai/ha Preemergence): 88
Plant response rating (0 no effect, 100 complete control) Foxtail, Giant ([12]; 62 g ai/ha Preemergence): 95
Plant response rating (0 no effect, 100 complete control) Foxtail, Giant ([12]; 125 g ai/ha Preemergence): 95
Plant response rating (0 no effect, 100 complete control) Velvetleaf ([13]; 4 g ai/ha Preemergence): 0
Plant response rating (0 no effect, 100 complete control) Velvetleaf ([13]; 8 g ai/ha Preemergence): 0
Plant response rating (0 no effect, 100 complete control) Velvetleaf ([13]; 16 g ai/ha Preemergence): 0
Plant response rating (0 no effect, 100 complete control) Velvetleaf ([13]; 31 g ai/ha Preemergence): 0
Plant response rating (0 no effect, 100 complete control) Velvetleaf ([13]; 62 g ai/ha Preemergence): 0
Plant response rating (0 no effect, 100 complete control) Velvetleaf ([13]; 125 g ai/ha Preemergence): 0
Plant response rating (0 no effect, 100 complete control) Barnyardgrass ([14]; 16 g ai/ha Preemergence): 85
Plant response rating (0 no effect, 100 complete control) Barnyardgrass ([14]; 31 g ai/ha Preemergence): 95
Plant response rating (0 no effect, 100 complete control) Barnyardgrass ([14]; 62 g ai/ha Preemergence): 95
Plant response rating (0 no effect, 100 complete control) Barnyardgrass ([14]; 125 g ai/ha Preemergence): 97
Plant response rating (0 no effect, 100 complete control) Barnyardgrass ([15]; 4 g ai/ha Preemergence): 0
Plant response rating (0 no effect, 100 complete control) Barnyardgrass ([15]; 8 g ai/ha Preemergence): 28
Plant response rating (0 no effect, 100 complete control) Barnyardgrass ([15]; 16 g ai/ha Preemergence): 63
Plant response rating (0 no effect, 100 complete control) Barnyardgrass ([15]; 31 g ai/ha Preemergence): 68
Plant response rating (0 no effect, 100 complete control) Barnyardgrass ([15]; 62 g ai/ha Preemergence): 97
Plant response rating (0 no effect, 100 complete control) Barnyardgrass ([15]; 125 g ai/ha Preemergence): 97
